Experimental data: paper PMC7782793, “Hydroxamic acid-modified peptide microarrays for profiling isozyme-selective interactions and inhibition of histone deacetylases” (Nature Communications, 2021)
Values joined by “and” are separate entries in the source; they are usually repeats but may differ in a detail not shown here. Identical values can stand only once. Marks after values point to notes of the source that are not given here. Non-standard residues stand in square brackets, D forms with d. Residues, ends and D or L forms follow the SMILES beside them. *: point of attachment. Asu = N[C@@H](CCCCCC(=O)O)C(=O)O; NHOH = ON*

How the values were obtained:
[1] = target: T1, HDAC2 (Homo sapiens, UniProt Q92769); assay: HDAC inhibition assay (fluorogenic, Ac-Leu-Gly-Lys(Ac)-AMC); type: biochemical; conditions: for HDAC2 dose-response data (relative enzyme activity), Fig. 6 + S. Fig. 10: duplicate columns
T1 construct: HDAC2 (full length, C-terminal His tag, BPS Bioscience, cat. #: 50002); purchased BPS Bioscience 50002

[2] = target: T2, HDAC3/NCoR2 (Homo sapiens, UniProt O15379); assay: Recombinant HDAC µSPOT microarray binding assay;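 also: peptide spots on cellulose slides incubated with rising HDAC enzyme concentrations, imaged together, four-parameter logistic fit, EC50 is enzyme concentration giving half-maximal binding signal, two experiments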
T2 construct: HDAC3/NCoR2 (full length, C-terminal His tag, NCoR2 N-terminal GST tag); purchased BPS Bioscience 50003
Method: Experiments were performed twice, data were obtained with Array Analyze software (Active Motif), and data analysis and representation were performed with the GraphPad Prism 7 software. Outliers were curated manually and data were fitted to nonlinear regression [log(agonist) vs. response—variable slope (four parameters)]. […] Non-sigmoidal curves were denoted as not determined (N.D.) The pEC50 values were determined as the concentration of HDAC enzyme required for half-maximal binding signal.

[3] = target: T3, HDAC8 (Homo sapiens, UniProt Q9BY41); assay: Recombinant HDAC µSPOT microarray binding assay;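 also: peptide µSPOT slides incubated with varying HDAC enzyme concentrations, imaged signal intensity fitted by four-parameter variable-slope regression, EC50 is enzyme concentration giving half-maximal binding, pH 7.4 HEPES buffer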
T3 construct: HDAC8 (full length, C-terminal His tag, BPS Bioscience, cat. #: 50008); purchased BPS Bioscience 50008
T3 sequence (Q9BY41 1-377): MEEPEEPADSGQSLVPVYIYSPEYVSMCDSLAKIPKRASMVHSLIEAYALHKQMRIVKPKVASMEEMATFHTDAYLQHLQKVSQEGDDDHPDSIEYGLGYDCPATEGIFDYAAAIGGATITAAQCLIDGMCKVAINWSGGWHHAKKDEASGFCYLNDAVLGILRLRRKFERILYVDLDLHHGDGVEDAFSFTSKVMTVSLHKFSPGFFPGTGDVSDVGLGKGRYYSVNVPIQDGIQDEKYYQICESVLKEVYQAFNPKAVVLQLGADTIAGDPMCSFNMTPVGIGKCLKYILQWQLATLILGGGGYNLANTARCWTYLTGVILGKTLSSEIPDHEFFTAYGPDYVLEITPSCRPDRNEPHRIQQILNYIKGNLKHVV

[4] = target: T4, HDAC1 (Homo sapiens, UniProt Q13547); assay: HDAC inhibition assay (fluorogenic, Ac-Leu-Gly-Lys(Ac)-AMC); type: biochemical; conditions: for HDAC1 dose-response data (relative enzyme activity), Fig. 6 + S. Fig. 10: duplicate columns
T4 construct: HDAC1 (full length, C-terminal His tag, C-terminal FLAG tag, BPS Bioscience, cat. #: 50051); FLAG (C); purchased BPS Bioscience 50051

[5] = target: T5, HDAC6 (Homo sapiens, UniProt Q9UBN7); assay: as above; type: biochemical; conditions: HDAC6, replicates
T5 construct: HDAC6 (full length, BPS Bioscience, cat. #: 50056); purchased BPS Bioscience 50056
T5 sequence (Q9UBN7 1-1215): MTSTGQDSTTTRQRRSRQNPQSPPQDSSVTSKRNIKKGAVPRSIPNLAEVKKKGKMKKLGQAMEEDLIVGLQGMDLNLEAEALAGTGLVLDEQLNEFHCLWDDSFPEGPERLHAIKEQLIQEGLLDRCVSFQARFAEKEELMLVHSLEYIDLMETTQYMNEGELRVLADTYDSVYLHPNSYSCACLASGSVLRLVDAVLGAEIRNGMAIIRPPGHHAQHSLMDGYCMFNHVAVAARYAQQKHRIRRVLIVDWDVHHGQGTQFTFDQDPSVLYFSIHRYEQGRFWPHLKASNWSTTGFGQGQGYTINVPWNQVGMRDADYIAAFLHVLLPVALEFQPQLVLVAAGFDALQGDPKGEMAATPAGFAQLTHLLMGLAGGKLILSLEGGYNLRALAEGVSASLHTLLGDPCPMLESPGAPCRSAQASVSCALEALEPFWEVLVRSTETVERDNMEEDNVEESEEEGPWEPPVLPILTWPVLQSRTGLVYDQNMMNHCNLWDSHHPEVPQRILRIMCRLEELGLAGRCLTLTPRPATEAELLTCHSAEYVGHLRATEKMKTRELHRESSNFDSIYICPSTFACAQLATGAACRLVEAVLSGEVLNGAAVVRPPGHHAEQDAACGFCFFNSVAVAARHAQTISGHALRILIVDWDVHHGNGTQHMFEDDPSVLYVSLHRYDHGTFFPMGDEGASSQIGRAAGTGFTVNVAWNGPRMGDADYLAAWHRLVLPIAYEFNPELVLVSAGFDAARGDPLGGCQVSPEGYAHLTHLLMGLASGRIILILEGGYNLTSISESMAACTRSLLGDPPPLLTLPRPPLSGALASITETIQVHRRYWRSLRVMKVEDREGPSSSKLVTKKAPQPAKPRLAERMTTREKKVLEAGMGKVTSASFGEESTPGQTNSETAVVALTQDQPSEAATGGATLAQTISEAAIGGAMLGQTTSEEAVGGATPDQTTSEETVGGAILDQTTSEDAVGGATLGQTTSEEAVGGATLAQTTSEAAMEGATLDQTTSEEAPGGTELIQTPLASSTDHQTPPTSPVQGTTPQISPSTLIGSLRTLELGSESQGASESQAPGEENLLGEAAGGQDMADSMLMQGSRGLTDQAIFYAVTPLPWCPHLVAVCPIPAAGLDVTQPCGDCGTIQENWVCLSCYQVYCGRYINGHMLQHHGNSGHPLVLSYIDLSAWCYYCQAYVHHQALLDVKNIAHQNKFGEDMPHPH

[6] = target: T4, HDAC1; assay: Recombinant HDAC µSPOT microarray binding assay;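 also: slides with spotted peptides incubated with six HDAC concentrations in HEPES buffer pH 7.4, spot intensities fitted by four-parameter logistic, EC50 as enzyme concentration giving half-maximal binding signal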
[7] = log[inhibitor(M)] -10,5850266520292*, whole line marked with asterisks

T4 sequence (Q13547 whole entry): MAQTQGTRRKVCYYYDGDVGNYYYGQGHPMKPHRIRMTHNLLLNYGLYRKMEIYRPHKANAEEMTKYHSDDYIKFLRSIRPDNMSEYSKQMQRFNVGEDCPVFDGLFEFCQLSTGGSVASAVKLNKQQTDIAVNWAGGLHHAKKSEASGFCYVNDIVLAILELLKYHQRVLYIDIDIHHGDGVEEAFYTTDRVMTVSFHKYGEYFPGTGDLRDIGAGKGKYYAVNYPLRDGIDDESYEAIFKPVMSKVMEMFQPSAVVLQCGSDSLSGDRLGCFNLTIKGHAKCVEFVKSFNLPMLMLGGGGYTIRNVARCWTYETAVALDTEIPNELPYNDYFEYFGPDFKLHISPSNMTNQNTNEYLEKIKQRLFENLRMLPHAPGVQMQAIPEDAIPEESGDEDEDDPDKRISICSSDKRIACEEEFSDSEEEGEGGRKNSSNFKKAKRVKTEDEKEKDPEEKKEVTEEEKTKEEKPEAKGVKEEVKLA
T1 sequence (Q92769 whole entry): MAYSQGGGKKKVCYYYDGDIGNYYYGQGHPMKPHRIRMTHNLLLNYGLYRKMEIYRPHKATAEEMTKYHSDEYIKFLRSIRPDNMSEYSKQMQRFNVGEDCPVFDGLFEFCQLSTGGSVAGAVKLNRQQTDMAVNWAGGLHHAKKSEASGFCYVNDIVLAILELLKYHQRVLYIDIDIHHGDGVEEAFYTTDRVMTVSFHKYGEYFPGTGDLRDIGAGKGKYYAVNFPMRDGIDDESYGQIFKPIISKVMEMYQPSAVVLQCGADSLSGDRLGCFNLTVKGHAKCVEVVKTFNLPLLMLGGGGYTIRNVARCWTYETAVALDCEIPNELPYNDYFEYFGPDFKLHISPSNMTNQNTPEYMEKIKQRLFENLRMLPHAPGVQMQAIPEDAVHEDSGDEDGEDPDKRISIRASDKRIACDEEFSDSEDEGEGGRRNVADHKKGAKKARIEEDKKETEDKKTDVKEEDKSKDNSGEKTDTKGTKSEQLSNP
T2 sequence (O15379 whole entry): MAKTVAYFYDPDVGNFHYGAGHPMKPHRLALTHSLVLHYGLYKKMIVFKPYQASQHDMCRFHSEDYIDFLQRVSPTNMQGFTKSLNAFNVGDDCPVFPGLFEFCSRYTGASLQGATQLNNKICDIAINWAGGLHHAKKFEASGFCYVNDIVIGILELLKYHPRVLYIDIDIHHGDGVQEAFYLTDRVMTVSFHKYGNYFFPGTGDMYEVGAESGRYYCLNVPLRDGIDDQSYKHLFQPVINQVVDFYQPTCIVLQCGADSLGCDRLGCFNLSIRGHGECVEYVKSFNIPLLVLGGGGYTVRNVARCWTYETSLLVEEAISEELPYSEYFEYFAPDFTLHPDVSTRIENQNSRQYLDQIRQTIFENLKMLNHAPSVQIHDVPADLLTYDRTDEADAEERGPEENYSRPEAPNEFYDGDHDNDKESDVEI
T2 sequence (Q9Y618 389-480 partner limits assumed): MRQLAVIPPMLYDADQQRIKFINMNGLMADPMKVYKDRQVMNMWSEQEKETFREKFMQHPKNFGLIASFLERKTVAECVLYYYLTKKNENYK

CC[C@H](C)[C@H](NC(=O)[C@@H](NC(=O)[C@H](CO)NC(=O)[C@H](CCCNC(=N)N)NC(=O)[C@H](CCCCCC(=O)NO)NC(=O)[C@H](CC(N)=O)NC(=O)[C@H](Cc1ccc(O)cc1)NC(=O)[C@H](Cc1c[nH]cn1)NC(=O)[C@H](C)NC(=O)[C@H](CC(C)C)NC(=O)[C@H](CCCNC(=N)N)NC(=O)[C@H](CO)NC(=O)[C@H](C)NC(=O)[C@H](CCC(=O)O)NC(C)=O)[C@@H](C)O)C(=O)N[C@H](C(=O)N[C@@H](CO)C(=O)N[C@@H](Cc1c[nH]c2ccccc12)C(N)=O)[C@@H](C)O [11a] (Ac-EASRLAHYN[Asu](NHOH)RSTITSW-NH2)
HDAC2 dose-response data (relative enzyme activity), Fig. 6 + S. Fig. 10 ([1]; log[inhibitor(M)] -5.69897): 7.362 and 7.275
HDAC2 dose-response data (relative enzyme activity), Fig. 6 + S. Fig. 10 ([1]; log[inhibitor(M)] -7.79588): 79.8909 and 86.975
HDAC2 dose-response data (relative enzyme activity), Fig. 6 + S. Fig. 10 [1, 7]: 93,4642959* and 101,701404*
Ki ([1]; resynthesized peptide in solution, Cheng-Prusoff, n = 2): 13.8 ± 0.1 nM
EC50 [2]: 2.82 nM
EC50 [3]: > 25.1 nM
Ki [4]: 13.1 ± 0.1 nM
HDAC1 dose-response data (relative enzyme activity), Fig. 6 + S. Fig. 10 ([4]; log[inhibitor(M)] -5.69897): 4.17 and 5.0607
HDAC1 dose-response data (relative enzyme activity), Fig. 6 + S. Fig. 10 ([4]; log[inhibitor(M)] -6.39794): 14.283 and 18.2541
HDAC1 dose-response data (relative enzyme activity), Fig. 6 + S. Fig. 10 ([4]; log[inhibitor(M)] -7.09691): 37.8888 and 46.2715
HDAC1 dose-response data (relative enzyme activity), Fig. 6 + S. Fig. 10 ([4]; log[inhibitor(M)] -7.79588): 70.7486 and 79.6987
HDAC1 dose-response data (relative enzyme activity), Fig. 6 + S. Fig. 10 ([4]; log[inhibitor(M)] -8.49485): 87.0411 and 94.7749
HDAC1 dose-response data (relative enzyme activity), Fig. 6 + S. Fig. 10 ([4]; log[inhibitor(M)] -9.19382): 97.6689 and 100.068
HDAC1 dose-response data (relative enzyme activity), Fig. 6 + S. Fig. 10 ([4]; log[inhibitor(M)] -9.89279): 97.248 and 100.059
HDAC1 dose-response data (relative enzyme activity), Fig. 6 + S. Fig. 10 [4, 7]: 97,6864843* and 100,018018*
residual enzymatic activity relative to control wells ([5]; log[inhibitor(M)] -4.30103): 2.583 and 1.686
residual enzymatic activity relative to control wells ([5]; log[inhibitor(M)] -5): 3.305 and 1.741
residual enzymatic activity relative to control wells ([5]; log[inhibitor(M)] -5.69897): 5.202 and 4.016
residual enzymatic activity relative to control wells ([5]; log[inhibitor(M)] -6.39794): 10.5662 and 11.8653
residual enzymatic activity relative to control wells ([5]; log[inhibitor(M)] -7.09691): 30.8137 and 34.4652
residual enzymatic activity relative to control wells ([5]; log[inhibitor(M)] -7.79588): 67.8407 and 69.7758
residual enzymatic activity relative to control wells ([5]; log[inhibitor(M)] -8.49485): 85.433 and 85.1351
residual enzymatic activity relative to control wells ([5]; log[inhibitor(M)] -9.19382): 83.1934 and 87.9013
residual enzymatic activity relative to control wells ([5]; log[inhibitor(M)] -9.89279): 78.0457 and 86.7533
residual enzymatic activity relative to control wells ([5]; log[inhibitor(M)] -10.585): 79.87 and 88.4822
EC50 [6]: > 25.1 nM
